Legend:
[1] = system: NASH model mice (STAM mouse); test: NASH model (STAM) mice, oral administration once a day for 28 days; liver tissue images, liver weight, serum and hepatic markers, NAS; assay type: in vivo; design: TNF-alpha, Score showing the degree of inflammation / IFN-gamma, Score showing the degree of inflammation: scale not given here; details: for serum ferritin level: oral 28 days (FIG. 7); for TNF-alpha, Score showing the degree of inflammation: oral 28 days (FIG. 11); for IFN-gamma, Score showing the degree of inflammation: oral 28 days (FIG. 12); for hepatic fibrosis area ratio: oral 28 days (FIG. 13); for weight ratio of liver to body / serum ALT level / hepatic TG (hepatic triglyceride) / MCP-1 (monocyte chemotactic protein-1) / NAS (NAFLD activity score) / hepatic ballooning score / lobular inflammation score / steatosis score / NAS (NAFLD activity score) improvement, in words: oral 28 days; for weight ratio of liver to body: after administration (FIG. 5); for serum ALT level: after administration (FIG. 6); for hepatic TG (hepatic triglyceride): after administration (FIG. 9); for MCP-1 (monocyte chemotactic protein-1): after administration (FIG. 10); for NAS (NAFLD activity score): full score of 8 (FIG. 17); for hepatic ballooning score: score of 0 to 2 (FIG. 14); for lobular inflammation score: score of 0 to 3 (FIG. 15); for steatosis score: score of 0 to 3 (FIG. 16); for liver weight: oral once a day, 28 days, polaprezinc 45.2 mg/kg, sodium selenite 150 μg/kg, after administration (FIG. 4); for NAS (NAFLD activity score) improvement, in words: comparison between groups
Description: An internationally prized and recognized STAM (registered trademark) mouse was used for the research model of non-alcoholic fatty liver disease (NAFLD) and/or non-alcoholic steatohepatitis (NASH). A STAM (registered trademark) mouse is an animal model of non-alcoholic steatohepatitis prepared by administrating inflammation inducer of the pancreas (patent literature 2) which Stelic Institute & Co. developed and is publically informed as patentee, and many research reports using this animal model has already been made domestic and overseas.
The NASH model mice were assigned to four groups (eight mice per group) by body weight stratification random sampling method so that the average body weight is equal. The four groups are the zinc preparation (polaprezinc)+selenium preparation (sodium selenite) group, zinc preparation (polaprezinc) alone group, selenium preparation (sodium selenite) alone group, and control group. The route of administration was oral administration, and the period of administration was 28 days.
The number of administration was once a day. The dosage was 10 ml/kg body weight and was administrated using an oral zonde.
The dosages of each group are shown below.
Blood was collected from the heart under ether anesthesia at the end of administration. The obtained serum was divisionally injected into a tube. It was euthanized by exsanguination after blood sampling and the photograph of the extracted liver was taken. For all necropsied animals, treatment was made to divide the liver into four respective lobes (right/left medial lobe, left lateral lobe, right lobe, caudate lobe), wherein especially the left lateral lobe was treated for three parts taking two each of its six equally divided parts, and the tissue image was analyzed.
The evaluation for non-alcoholic fatty liver disease (NAFLD) and/or non-alcoholic steatohepatitis (NASH) improvement was evaluated by the following items.
NAS (NAFLD activity score) is used to evaluate non-alcoholic fatty liver disease (NAFLD). NAS is advocated by Nonalcoholic⋅Steato⋅hepatitis⋅Clinical⋅Research⋅Network (nonpatent literature 2). […] The activity of NAS is evaluated by putting the three of steatosis, lobular inflammation, and Ballooning degeneration into scores. It is shown in full score of 8 in total, score of 0 to 3 for steatosis and lobular inflammation, and score of 0 to 2 for hepatic Ballooning degeneration. Steatosis, lobular inflammation, hepatic Ballooning degeneration, and NAS (NAFLD activity score) was compared and examined for the four groups, the group of the combination drug of zinc preparation (polaprezinc) and selenium preparation (sodium selenite), the control group, the zinc preparation (polaprezinc) alone group, and the selenium preparation (sodium selenite) alone group.

hepatic fibrosis = details: from patent literature 1, nonpatent literature 3 and 5; cited from earlier work

Compound: O=[Se](O)O [selenium preparation (sodium selenite), sodium selenite]
- serum ferritin level [1]: 5,251 ng/ml
- TNF-alpha, Score showing the degree of inflammation [1]: 13.23
- IFN-gamma, Score showing the degree of inflammation [1]: 8.02
- hepatic fibrosis area ratio [1]: 1.18%
- weight ratio of liver to body [1]: 7.43%
- serum ALT level [1]: 54.6 IU/L
- hepatic TG (hepatic triglyceride) [1]: 57.3 mg/dL
- MCP-1 (monocyte chemotactic protein-1) [1]: 3.2
- NAS (NAFLD activity score) [1]: 3.54
- hepatic ballooning score [1]: 1.23
- lobular inflammation score [1]: 1.46
- steatosis score [1]: 0.85
- liver weight [1]: 1,385.2 mg

Compound: NCCC(=O)[N-][C@@H](Cc1c[nH]cn1)C(=O)[O-].[Zn+2] [zinc preparation (polaprezinc), L-carnosine zinc salt]
- F4/80 (macrophage) antigen expression level in stained liver tissue ([1]; oral 28 days (FIG. 2-1, 2-2)): suppresses the expression level significantly compared with the control
- serum ferritin level [1]: 5,740 ng/ml
- TNF-alpha, Score showing the degree of inflammation [1]: 12.80
- IFN-gamma, Score showing the degree of inflammation [1]: 7.95
- hepatic fibrosis area ratio [1]: 1.16%
- weight ratio of liver to body [1]: 7.49%
- serum ALT level [1]: 58.8 IU/L
- hepatic TG (hepatic triglyceride) [1]: 64.2 mg/dL
- MCP-1 (monocyte chemotactic protein-1) [1]: 3.3
- NAS (NAFLD activity score) improvement, in words [1]: significantly declined NAS (NAFLD activity score) compared with the control group
- NAS (NAFLD activity score) improvement, in words ([1]; listed as Zinc preparation (polaprezinc)): showed improvement compared to the control group
- NAS (NAFLD activity score) [1]: 3.62
- hepatic ballooning score [1]: 1.38
- lobular inflammation score [1]: 1.38
- steatosis score [1]: 0.85
- liver weight [1]: 1,389 mg
- suppression of hepatic fibrosis (prior reports) (hepatic fibrosis): suppresses hepatic fibrosis

Reference: US11058718B2, “Method for treating non-alcoholic steatohepatitis (NASH) with the combination of polaprezinc and sodium selenite” (Medico Consl Co., Ltd., priority 2019, dated 2021)
